Data published in ChEMBL document CHEMBL5291721, “A preclinical secondary pharmacology resource illuminates target-adverse drug reaction associations of marketed drugs” (Nat Commun, 2023).

Experiments:
Progesterone receptor = molecular target: T1, Progesterone receptor (Homo sapiens, UniProt P06401); type: functional
T1 sequence (P06401 whole entry): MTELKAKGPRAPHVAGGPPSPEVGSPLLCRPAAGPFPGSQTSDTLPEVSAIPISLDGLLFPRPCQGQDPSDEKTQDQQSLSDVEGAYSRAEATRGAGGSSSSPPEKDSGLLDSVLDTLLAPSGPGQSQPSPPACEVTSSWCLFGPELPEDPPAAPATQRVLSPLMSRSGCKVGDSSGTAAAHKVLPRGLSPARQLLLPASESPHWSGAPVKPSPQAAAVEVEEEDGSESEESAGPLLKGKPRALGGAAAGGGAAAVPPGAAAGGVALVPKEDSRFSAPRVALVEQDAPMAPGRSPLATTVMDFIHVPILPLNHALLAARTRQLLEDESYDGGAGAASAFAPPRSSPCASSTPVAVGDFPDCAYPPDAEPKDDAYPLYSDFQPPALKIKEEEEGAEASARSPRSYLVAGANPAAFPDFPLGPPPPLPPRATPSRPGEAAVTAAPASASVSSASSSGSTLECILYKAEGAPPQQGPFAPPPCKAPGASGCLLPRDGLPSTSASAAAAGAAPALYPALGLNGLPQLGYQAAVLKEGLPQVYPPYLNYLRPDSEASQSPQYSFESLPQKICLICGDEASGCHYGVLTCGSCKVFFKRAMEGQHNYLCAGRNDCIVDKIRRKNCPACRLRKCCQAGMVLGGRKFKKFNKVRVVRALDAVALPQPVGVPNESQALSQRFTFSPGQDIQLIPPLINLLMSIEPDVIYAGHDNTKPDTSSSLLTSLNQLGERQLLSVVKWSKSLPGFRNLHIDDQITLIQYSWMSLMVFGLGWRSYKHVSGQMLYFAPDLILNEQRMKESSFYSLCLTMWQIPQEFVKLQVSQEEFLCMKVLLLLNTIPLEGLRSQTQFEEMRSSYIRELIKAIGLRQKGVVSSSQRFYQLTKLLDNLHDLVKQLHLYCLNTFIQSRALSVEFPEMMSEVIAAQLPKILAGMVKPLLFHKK

[1] = molecular target: T2, Muscarinic acetylcholine receptor M2 (Homo sapiens, UniProt P08172); type: functional, cell-based
T2 sequence (P08172 whole entry): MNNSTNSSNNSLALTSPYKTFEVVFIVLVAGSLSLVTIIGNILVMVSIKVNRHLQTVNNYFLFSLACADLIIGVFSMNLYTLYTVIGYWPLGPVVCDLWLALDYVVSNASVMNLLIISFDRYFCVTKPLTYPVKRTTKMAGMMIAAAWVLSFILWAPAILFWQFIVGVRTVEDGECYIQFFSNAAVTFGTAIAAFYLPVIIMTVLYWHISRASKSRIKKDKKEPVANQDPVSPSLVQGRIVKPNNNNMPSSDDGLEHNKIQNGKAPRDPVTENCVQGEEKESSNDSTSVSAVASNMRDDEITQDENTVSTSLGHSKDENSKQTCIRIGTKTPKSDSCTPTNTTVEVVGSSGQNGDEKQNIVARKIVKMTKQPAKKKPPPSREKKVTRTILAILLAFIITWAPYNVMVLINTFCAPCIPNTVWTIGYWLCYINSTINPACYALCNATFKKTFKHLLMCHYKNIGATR

[2] = molecular target: 5-hydroxytryptamine receptor 2B (Homo sapiens, UniProt P41595); type: functional, cell-based
Sequence of 5-hydroxytryptamine receptor 2B (P41595 whole entry): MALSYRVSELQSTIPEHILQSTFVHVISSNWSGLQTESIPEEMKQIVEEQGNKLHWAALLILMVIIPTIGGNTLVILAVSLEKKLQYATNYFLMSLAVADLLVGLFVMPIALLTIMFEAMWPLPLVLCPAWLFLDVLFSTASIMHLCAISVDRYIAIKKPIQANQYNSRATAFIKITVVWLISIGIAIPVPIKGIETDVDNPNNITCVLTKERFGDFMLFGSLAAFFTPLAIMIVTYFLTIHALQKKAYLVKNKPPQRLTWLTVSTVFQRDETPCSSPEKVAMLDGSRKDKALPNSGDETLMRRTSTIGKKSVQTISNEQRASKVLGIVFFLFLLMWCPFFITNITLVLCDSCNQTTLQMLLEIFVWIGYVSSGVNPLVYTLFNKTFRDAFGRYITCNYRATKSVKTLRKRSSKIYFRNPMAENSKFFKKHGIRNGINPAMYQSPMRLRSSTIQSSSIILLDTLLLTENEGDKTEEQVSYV

[3] = molecular target: T3, Amine oxidase [flavin-containing] A (Homo sapiens, UniProt P21397); type: functional
T3 sequence (P21397 whole entry): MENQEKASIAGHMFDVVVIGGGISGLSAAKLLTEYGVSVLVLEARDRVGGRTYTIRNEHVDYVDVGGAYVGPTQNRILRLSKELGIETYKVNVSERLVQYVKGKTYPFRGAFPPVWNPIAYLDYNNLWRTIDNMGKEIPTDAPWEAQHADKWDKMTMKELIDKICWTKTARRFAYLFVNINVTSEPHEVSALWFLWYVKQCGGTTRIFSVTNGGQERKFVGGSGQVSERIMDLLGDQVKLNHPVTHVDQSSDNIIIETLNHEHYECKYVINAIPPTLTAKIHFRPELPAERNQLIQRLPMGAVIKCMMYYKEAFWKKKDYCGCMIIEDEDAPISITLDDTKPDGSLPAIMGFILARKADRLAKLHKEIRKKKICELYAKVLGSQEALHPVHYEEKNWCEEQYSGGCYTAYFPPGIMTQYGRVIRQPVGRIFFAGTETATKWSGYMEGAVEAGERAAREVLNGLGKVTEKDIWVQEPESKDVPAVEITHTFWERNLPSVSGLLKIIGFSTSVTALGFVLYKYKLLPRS

[4] = molecular target: T4, Neuropeptide Y receptor type 1 (Homo sapiens, UniProt P25929)
T4 sequence (P25929 whole entry): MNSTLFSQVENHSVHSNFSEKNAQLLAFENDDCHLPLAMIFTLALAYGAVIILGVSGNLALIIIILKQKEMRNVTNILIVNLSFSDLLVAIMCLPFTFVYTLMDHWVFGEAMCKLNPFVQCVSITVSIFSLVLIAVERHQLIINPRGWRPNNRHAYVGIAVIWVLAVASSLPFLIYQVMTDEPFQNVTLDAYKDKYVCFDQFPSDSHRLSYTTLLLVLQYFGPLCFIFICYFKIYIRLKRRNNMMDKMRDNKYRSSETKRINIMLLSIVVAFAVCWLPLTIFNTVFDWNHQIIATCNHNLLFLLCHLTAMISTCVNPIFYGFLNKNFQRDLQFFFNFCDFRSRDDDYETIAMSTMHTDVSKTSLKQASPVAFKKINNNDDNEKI

[5] = molecular target: Beta-1 adrenergic receptor (Homo sapiens, UniProt P08588); type: functional
Sequence of Beta-1 adrenergic receptor (P08588 whole entry): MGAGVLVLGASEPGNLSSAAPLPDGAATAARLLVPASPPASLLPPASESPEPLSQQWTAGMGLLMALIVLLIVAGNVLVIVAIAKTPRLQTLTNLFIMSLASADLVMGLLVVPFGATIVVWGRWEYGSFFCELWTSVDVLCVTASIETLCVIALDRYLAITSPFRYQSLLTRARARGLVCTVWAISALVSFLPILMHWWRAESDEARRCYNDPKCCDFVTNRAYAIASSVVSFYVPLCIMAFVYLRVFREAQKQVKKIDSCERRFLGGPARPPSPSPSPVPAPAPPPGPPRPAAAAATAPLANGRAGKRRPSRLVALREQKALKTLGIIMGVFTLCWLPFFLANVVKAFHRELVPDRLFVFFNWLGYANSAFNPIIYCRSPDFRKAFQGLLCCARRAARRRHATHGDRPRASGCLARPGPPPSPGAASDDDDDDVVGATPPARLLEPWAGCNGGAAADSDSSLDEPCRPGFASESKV

[6] = molecular target: T5, Cholecystokinin receptor type A (Homo sapiens, UniProt P32238)
T5 sequence (P32238 whole entry): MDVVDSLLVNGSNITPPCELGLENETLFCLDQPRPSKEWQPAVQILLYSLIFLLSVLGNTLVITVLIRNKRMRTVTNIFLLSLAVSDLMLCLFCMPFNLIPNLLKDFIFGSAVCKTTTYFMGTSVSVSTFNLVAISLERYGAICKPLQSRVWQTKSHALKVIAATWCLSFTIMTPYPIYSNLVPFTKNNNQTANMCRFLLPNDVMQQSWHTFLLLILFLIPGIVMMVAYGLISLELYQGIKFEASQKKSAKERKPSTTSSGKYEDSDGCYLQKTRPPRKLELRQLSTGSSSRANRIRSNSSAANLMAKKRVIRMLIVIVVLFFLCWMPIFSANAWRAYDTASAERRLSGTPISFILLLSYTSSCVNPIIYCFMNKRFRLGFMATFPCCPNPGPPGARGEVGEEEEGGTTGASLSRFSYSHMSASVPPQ

Motilin receptor = Motilin receptor (Homo sapiens, UniProt O43193)
Sequence of Motilin receptor (O43193 whole entry): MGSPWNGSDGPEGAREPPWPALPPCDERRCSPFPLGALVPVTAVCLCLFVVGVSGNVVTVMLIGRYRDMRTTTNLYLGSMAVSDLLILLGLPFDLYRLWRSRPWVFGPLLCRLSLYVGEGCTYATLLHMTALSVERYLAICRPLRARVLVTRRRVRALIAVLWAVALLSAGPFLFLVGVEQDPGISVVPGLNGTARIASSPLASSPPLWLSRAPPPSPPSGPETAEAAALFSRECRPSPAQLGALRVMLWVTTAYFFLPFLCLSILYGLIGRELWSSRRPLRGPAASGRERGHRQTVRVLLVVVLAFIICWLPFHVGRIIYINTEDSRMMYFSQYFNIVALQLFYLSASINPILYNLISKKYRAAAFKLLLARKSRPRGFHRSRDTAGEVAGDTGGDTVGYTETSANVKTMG

Cannabinoid receptor 1 = Cannabinoid receptor 1 (Homo sapiens, UniProt P21554); type: functional, cell-based
Sequence of Cannabinoid receptor 1 (P21554 whole entry): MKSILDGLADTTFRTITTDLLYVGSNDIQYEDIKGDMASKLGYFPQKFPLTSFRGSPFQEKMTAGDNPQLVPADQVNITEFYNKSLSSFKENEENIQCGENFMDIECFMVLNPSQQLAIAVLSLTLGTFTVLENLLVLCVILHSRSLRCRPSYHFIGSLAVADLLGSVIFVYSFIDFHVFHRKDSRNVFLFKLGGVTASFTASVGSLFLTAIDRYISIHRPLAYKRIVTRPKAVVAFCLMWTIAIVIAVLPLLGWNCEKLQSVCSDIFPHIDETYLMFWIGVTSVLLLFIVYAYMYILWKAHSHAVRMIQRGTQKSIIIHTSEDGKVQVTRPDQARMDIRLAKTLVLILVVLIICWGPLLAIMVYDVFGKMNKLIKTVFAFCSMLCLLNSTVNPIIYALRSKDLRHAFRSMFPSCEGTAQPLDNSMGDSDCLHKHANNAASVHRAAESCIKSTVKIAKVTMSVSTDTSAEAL
Further: assay procedure not described here.

| Compound | AC50 (Progesterone receptor) [µM] | AC50 [1] [µM] | AC50 [2] [µM] | AC50 [3] [µM] | AC50 [4] [µM] | AC50 [5] [µM] | AC50 [6] [µM] | AC50 (Motilin receptor) [µM] | AC50 (Cannabinoid receptor 1) [µM] |
| --- | --- | --- | --- | --- | --- | --- | --- | --- | --- |
| Nc1ccc(S(=O)(=O)Nc2ncccn2)cc1 [SULFADIAZINE] | > 10 | > 10 | > 10 | > 10 | > 10 | > 10 | > 10 | > 10 |  |
| CCC(NC(C)C)C(O)c1ccc(O)c(O)c1 (centres undefined) [ISOETHARINE] | > 30 | > 30 | > 30 | > 30 | > 30 |  | > 30 | > 30 |  |
| COC(=O)[C@H]1[C@H]2C[C@@H]3c4[nH]c5ccccc5c4CCN3C[C@H]2C[C@@H](OC(=O)c2cc(OC)c(OC)c(OC)c2)[C@@H]1OC [DESERPIDINE] | > 30 | > 10 | > 10 | > 10 | > 30 | > 10 | 34.4 | > 30 |  |
| Cc1cccc(Nc2ccncc2S(=O)(=O)NC(=O)NC(C)C)c1 [TORSEMIDE] | > 10 | > 10 | > 10 | > 10 | > 30 | > 10 | > 30 | > 30 |  |
| OCC(CO)N[C@H]1C[C@](O)(CO)[C@@H](O)[C@H](O)[C@H]1O [VOGLIBOSE] | > 30 | > 30 | > 30 | > 30 | > 30 | > 30 | > 30 | > 30 |  |
| CCC1(C)CC(=O)NC1=O (centres undefined) [ETHOSUXIMIDE] | > 10 | > 10 | > 10 | > 10 | > 10 | > 10 | > 10 | > 10 |  |
| CC1CC(OC(=O)C(O)c2ccccc2)CC(C)(C)C1 (centres undefined) [CYCLANDELATE] | > 30 | > 10 | > 10 | > 10 | > 10 | > 10 | > 10 | > 10 |  |
| O=C(O)c1ccc2nc(-c3cc(Cl)cc(Cl)c3)oc2c1 | > 30 | > 30 | > 30 | 18 | > 30 | > 30 | > 30 | > 30 |  |
| CCC1(CC)C(=O)NC(=O)N(C)C1=O [METHARBITAL] | > 10 | > 10 | > 10 | > 10 | > 10 | > 10 | > 10 | > 10 |  |
| OCC(O)COc1ccc(Cl)cc1 (centres undefined) | > 10 | > 10 | > 10 | > 10 | > 10 | > 10 | > 10 | > 10 |  |
| CN(Cc1ccc(C(C)(C)C)cc1)Cc1cccc2ccccc12 [BUTENAFINE] | > 30 | > 10 | > 10 | > 10 | > 10 | > 10 | > 10 | > 10 |  |
| CC1=C(CC(=O)O)c2cc(F)ccc2/C1=C\c1ccc([S+](C)[O-])cc1 (centres undefined) |  | > 10 | > 10 | > 10 | > 30 | > 10 | > 30 | > 10 | > 30 |
| CC(=O)OCC1=C(C(=O)O)N2C(=O)[C@@H](NC(=O)CSc3ccncc3)[C@H]2SC1 [CEPHAPIRIN] | > 30 | > 10 | > 10 | > 10 | > 10 | > 10 | > 10 | > 10 |  |
| CCN(CC)C(C)C(=O)c1ccccc1 (centres undefined) [DIETHYLPROPION] |  | > 10 | > 10 | > 10 | > 30 | > 10 | > 30 | > 10 | > 30 |
| Oc1cc(O)c2c(c1)O[C@H](c1ccc(O)c(O)c1)[C@@H](O)C2 [CIANIDANOL] |  | > 10 | > 10 | > 10 | > 30 | > 10 | > 30 | > 10 | > 30 |
